# Measured values: patent US20260374739A1, “SMALL MOLECULAR WEIGHT CHEMICAL COMPOUND TO ANTAGONIZE EPH-EPHRIN TETRAMERIZATION AND INHIBIT BIDIRECTIONAL SIGNALING” (THE BOARD OF REGENTS OF THE UNIVERSITY OF TEXAS SYSTEM, priority 2022, published 2026)
# “Also recorded” adds a separate entry of the source.
# What was measured:
# EphB2-EphrinB2 tetramer = EphB2-EphrinB2 tetramer (Homo sapiens, UniProt P29323); test: mass photometry; type: binding, mouse EphrinB2; conditions: 216 kDa without
# Method: To verify the kinetic studies using the Octet system, mass photometry (MP) that uses optical detection to measure the mass of individual proteins and protein complexes in solution was employed. MP was used to determine the mass of EphB2 and EphrinB2 ectodomain proteins individually or after being combined and allowed to associate into tetramers for a 24 hr period either without or with 10 or 50 μM concentrations of the A20 salt (FIG. 26). For these experiments His-tagged proteins, human hEphB2-His and murine mEB2-His were used. […] During MP experiments EphB2 and EB2 when analyzed alone would each measure as a homodimer, and when the EphB2 and EphrinB2 proteins are combined, the average mass of the protein species shifted to a larger 216 kDa species (FIG. 26C). The size was as expected if two EphB2 and two EphrinB2 molecules complexed together into the stable circular tetramer (130+83=213 kDa). […] It is important to understand that the MP experiments described here are powerful, but also temporally limited because we can really only assess the protein species after interaction homeostasis has been achieved and for this experiment the proteins and A20 were allowed to incubate together for 24 hr before masses were determined.
# [1] = test system: normal human dermal fibroblast (NHDF) cells; test: MTT cytotoxicity; type: cell-based; conditions: up to 10 μM, 48 hr
# Method: Potential cytotoxicity of A20 was evaluated using MTT assay performed after culturing normal human dermal fibroblast (NHDF) cells with increasing concentrations of A20 for 48 hr.
# [2] = multi-day IP dosing tolerability; type: in vivo, mouse; conditions: multi-day dosing every 12 hr, up to 40 mg/kg
# EphB4-Fc / EB2-His = biological target: T1, EphB4-Fc / EB2-His (Mus musculus, UniProt P54761); test: pulldown EB2-His to EphB4-Fc; type: binding; conditions: up to 250 μM for A20; listed as A20
# T1 construct: soluble mouse EB2-His ectodomain, pulldown
# [3] = test system: DH neurons in the spinal cord; test: dorsal horn neuron activation (Trap2/Ai9) after CFA; type: in vivo, mouse; conditions: listed as A20
# Method: FIG. 65 depicts development of a quantitative fluorescent method to assess the activation of DH neurons in the spinal cord following a chronic, […]. The left hind paws of EphB1+/+ wild-type, EphB1+/− heterozygous, and EphB1−/− homozygous mutant mice that also contained the Trap2/CreERT2 driver and the Ai9/tdTomato reporter were injected once with CFA to induce inflammatory pain. Four hours later, mice were then injected IP with 4-hydroxy-tamoxifen (4-OHT, 40 mg/kg in sunflower seed oil) to activate Cre recombinase and permanently label with red fluorescence the neurons that were activated during the short window of time (~8 hr) until the 4-OHT is degraded. Fourteen days later, animals were perfused with 4% paraformaldehyde dissolved in PBS and then […] thick vibratome serial sections of the lumbar spinal cord were obtained, mounted, and viewed under fluorescence microscopy to identify red labeled neurons in the superficial dorsal horn of the spinal cords that were activated between ~4-12 hr after the CFA induction of inflammatory pain. Superficial red neurons were counted on the left (injured) and right (uninjured) side dorsal horns (boxed areas) from 8-12 serial sections along the span of lumbar cord of each animal. […]
# Chain of EphB2-EphrinB2 tetramer (P29323 19-543 limits assumed): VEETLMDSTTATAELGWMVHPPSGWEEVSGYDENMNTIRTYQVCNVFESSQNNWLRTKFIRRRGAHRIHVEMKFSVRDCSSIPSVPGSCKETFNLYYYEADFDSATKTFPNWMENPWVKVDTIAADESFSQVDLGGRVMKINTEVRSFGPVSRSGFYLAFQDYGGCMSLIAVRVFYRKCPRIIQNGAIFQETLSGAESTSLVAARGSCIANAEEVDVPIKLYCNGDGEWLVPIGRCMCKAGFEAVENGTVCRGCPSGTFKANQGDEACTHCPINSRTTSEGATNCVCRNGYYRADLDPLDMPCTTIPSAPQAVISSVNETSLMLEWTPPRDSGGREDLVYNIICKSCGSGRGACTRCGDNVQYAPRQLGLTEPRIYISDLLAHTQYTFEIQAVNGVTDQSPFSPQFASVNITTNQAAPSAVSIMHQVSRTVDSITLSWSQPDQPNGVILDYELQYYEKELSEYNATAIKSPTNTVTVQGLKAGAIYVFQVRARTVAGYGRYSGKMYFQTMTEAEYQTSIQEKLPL
# T1 sequence (P54761 16-539 limits assumed): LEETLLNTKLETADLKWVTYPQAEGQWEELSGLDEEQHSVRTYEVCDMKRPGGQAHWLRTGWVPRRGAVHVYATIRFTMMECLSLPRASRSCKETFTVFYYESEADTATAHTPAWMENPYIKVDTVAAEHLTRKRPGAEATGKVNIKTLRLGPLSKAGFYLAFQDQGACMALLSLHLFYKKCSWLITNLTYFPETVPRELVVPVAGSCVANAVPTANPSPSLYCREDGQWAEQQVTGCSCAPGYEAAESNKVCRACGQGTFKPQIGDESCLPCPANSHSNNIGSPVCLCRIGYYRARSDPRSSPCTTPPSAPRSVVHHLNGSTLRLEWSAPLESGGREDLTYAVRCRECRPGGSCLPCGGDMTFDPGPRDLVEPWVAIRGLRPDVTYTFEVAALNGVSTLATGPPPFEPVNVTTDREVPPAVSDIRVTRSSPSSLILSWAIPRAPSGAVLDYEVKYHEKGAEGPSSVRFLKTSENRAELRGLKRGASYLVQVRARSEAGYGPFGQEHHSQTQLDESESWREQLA
smiles,measurement,setting,value
"Oc1c(Br)cc(CN2CCOCC2)c2cccnc12 [Compound 5, 7-bromo-5-(morpholinomethyl)quinolin-8-ol]",average mass of protein species,EphB2-EphrinB2 tetramer; 10 μM A20 salt,158 kDa
same,average mass of protein species,EphB2-EphrinB2 tetramer; 50 μM A20 salt,150 kDa
same,cytotoxicity,[1],not toxic
same,tolerability,[2],well tolerated
same,pulldown EphB4-Fc binding to EB2-His,EphB4-Fc / EB2-His,only a weak ability to prevent EphB4-Fc from binding to EB2-His; also recorded: only weak/poor ability to antagonize soluble EB2-His binding
same,DH neuron activation,[3],significantly fewer labeled neurons in the injured side; also recorded: dramatically reduced DH neuron activation
